Results reported in PubChem BioAssay (NCI).
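Test compounds were applied to cells in 96-well plates for 48 hours at 5 doses. TGI denotes the concentration required for complete inhibition of growth.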

Tests used:
Experiment in all cases: growth of human tumour cells (NCI), 48 h
[1] = test system: CCRF-CEM leukemia
[2] = test system: M14 melanoma
[3] = test system: OVCAR-8 ovarian
[4] = test system: SN12C renal
[5] = test system: NCI-H23 lung
[6] = test system: MOLT-4 leukemia
[7] = test system: SW-620 colon
[8] = test system: IGROV1 ovarian
[9] = test system: NCI/ADR-RES ovarian
[10] = test system: DU-145 prostate

For `c1ccc(CCNCc2ccco2)nc1`, the TGI [1] was over 100 µM, the TGI [2] was over 100 µM and the TGI [3] was over 100 µM. It also gave a TGI [4] of over 100 µM, a TGI [5] of over 100 µM and a TGI [6] of over 100 µM. The TGI [7] was over 100 µM, the TGI [8] was over 100 µM and the TGI [9] was over 100 µM. The TGI [10] was over 100 µM.
`O=C1CCC2(CCO1)OCCO2` gave a TGI [1] of over 100 µM, a TGI [2] of over 100 µM and a TGI [3] of over 100 µM. It also gave a TGI [4] of over 100 µM, a TGI [5] of over 100 µM and a TGI [6] of over 100 µM. For the same compound, the TGI [7] was over 100 µM, the TGI [8] was over 100 µM and the TGI [9] was over 100 µM. For the same compound, the TGI [10] was over 100 µM.
With `O=C1C=CC(=O)C(CNc2ccc(C(=O)OC34CC5CC(CC(C5)C3)C4)cc2)=C1` the TGI [1] was over 20.4 µM, the TGI [2] was 31.1 µM and the TGI [3] was 56 µM. For the same compound, the TGI [4] was 17.8 µM, the TGI [5] was 25.4 µM and the TGI [6] was 8.34 µM. For the same compound, the TGI [7] was 27.4 µM, the TGI [8] was 4.86 µM and the TGI [9] was 44.1 µM. The TGI [10] was 47.6 µM.
In the case of `COc1cccc(CC(C)NCC(O)c2ccc(O)c(O)c2)c1` (configuration not stated), the TGI [1] is reported as over 100 µM, the TGI [2] is reported as over 100 µM and the TGI [3] is reported as 53.6 µM. The TGI [4] was 83.8 µM, the TGI [5] was over 100 µM and the TGI [6] was 51.7 µM. The TGI [7] was over 100 µM, the TGI [8] was over 100 µM and the TGI [9] was over 100 µM. The TGI [10] was over 100 µM.
Compound `CC(C)=CCC[C@@H](C)C1=C(Nc2ccccc2Cl)C(O)=C(C)C(=O)C1=O` has a TGI [2] of 33.5 µM, a TGI [3] of 9.09 µM and a TGI [4] of 25.2 µM. The TGI [5] was 15.9 µM, the TGI [6] was 25.1 µM and the TGI [7] was over 56.4 µM. For the same compound, the TGI [8] was over 39.1 µM, the TGI [9] was 27.1 µM and the TGI [10] was 29.3 µM.
In the case of `Cc1nc2c3c(ncn2n1)Oc1c(c(-c2ccccc2)nn1-c1ccccc1)C3c1ccc(Cl)cc1` (configuration not stated), the TGI [2] is reported as over 100 µM, the TGI [3] is reported as over 100 µM and the TGI [4] is reported as over 100 µM. It also gave a TGI [5] of over 100 µM, a TGI [6] of over 100 µM and a TGI [7] of over 100 µM. For the same compound, the TGI [8] was over 100 µM, the TGI [9] was over 100 µM and the TGI [10] was over 100 µM.
Work on `Cc1ccc(C(=O)O)c(CC2Cc3c(C)cccc3C2=O)c1` (configuration not stated) yielded a TGI [1] of over 100 µM, a TGI [2] of over 100 µM and a TGI [3] of over 100 µM. It also gave a TGI [4] of over 100 µM, a TGI [5] of over 100 µM and a TGI [6] of over 100 µM. The TGI [7] was over 100 µM, the TGI [8] was over 100 µM and the TGI [9] was over 100 µM. For the same compound, the TGI [10] was over 100 µM.
`Cc1cccc2c1[nH]c1[nH]c(=O)[nH]c(=O)c12` showed a TGI [1] of over 100 µM, a TGI [2] of over 100 µM and a TGI [3] of over 100 µM. It also gave a TGI [4] of over 100 µM, a TGI [5] of over 100 µM and a TGI [6] of over 100 µM. For the same compound, the TGI [7] was over 100 µM, the TGI [8] was over 100 µM and the TGI [9] was over 100 µM. The TGI [10] was over 100 µM.
`C(=C\c1cccc(/C=C/c2ccccn2)n1)/c1ccccn1` gave a TGI [1] of over 100 µM, a TGI [2] of over 100 µM and a TGI [3] of over 100 µM. The TGI [4] was over 100 µM, the TGI [5] was over 100 µM and the TGI [6] was over 100 µM. For the same compound, the TGI [7] was over 100 µM, the TGI [8] was over 100 µM and the TGI [9] was over 100 µM. It also gave a TGI [10] of over 100 µM.
In the case of `N#Cc1nc(CCCCCN2C(=O)c3ccccc3C2=O)oc1N`, the TGI [1] is reported as 74.5 µM, the TGI [2] is reported as over 100 µM and the TGI [3] is reported as over 100 µM. The TGI [4] was over 100 µM, the TGI [5] was over 100 µM and the TGI [6] was over 100 µM. The TGI [7] was over 100 µM, the TGI [8] was over 100 µM and the TGI [9] was over 100 µM. The TGI [10] was over 100 µM.
With `O=C(NCc1cccc(C(F)(F)F)c1)c1cc2sccc2nc1C(F)(F)F` the TGI [1] was over 100 µM, the TGI [2] was over 100 µM and the TGI [3] was over 100 µM. It also gave a TGI [4] of over 100 µM, a TGI [5] of over 100 µM and a TGI [6] of over 100 µM. For the same compound, the TGI [7] was over 100 µM, the TGI [8] was over 100 µM and the TGI [9] was over 100 µM.
`Cc1ccc(C2=NOC(=O)[C@@H]3CCCC[C@@H]23)cc1` showed a TGI [1] of over 100 µM, a TGI [2] of over 100 µM and a TGI [3] of over 100 µM. For the same compound, the TGI [4] was over 100 µM, the TGI [5] was over 100 µM and the TGI [6] was over 100 µM. The TGI [7] was over 100 µM, the TGI [8] was over 100 µM and the TGI [9] was over 100 µM. The TGI [10] was over 100 µM.
Compound `N=C1N(S(=O)(=O)c2ccccc2)[C@@H](Cc2ccccc2)[C@H](c2ccccc2)C1(c1ccccc1)c1ccccc1` has a TGI [1] of over 100 µM, a TGI [2] of over 100 µM and a TGI [3] of over 100 µM. For the same compound, the TGI [4] was over 100 µM, the TGI [5] was over 100 µM and the TGI [6] was over 100 µM. It also gave a TGI [7] of over 100 µM, a TGI [8] of over 100 µM and a TGI [9] of over 100 µM. For the same compound, the TGI [10] was over 100 µM.
`C=C(CCC(C)C1CCC2C3=C(C(=O)CC21C)C1(C)CCC(=O)[C@@H](C)C1CC3=O)C(C)C(=O)O` (some centres not stated) showed a TGI [1] of 42.2 µM, a TGI [2] of over 100 µM and a TGI [3] of over 100 µM. The TGI [4] was over 100 µM, the TGI [5] was over 100 µM and the TGI [6] was 74.9 µM. For the same compound, the TGI [7] was over 100 µM, the TGI [8] was over 100 µM and the TGI [9] was over 100 µM. It also gave a TGI [10] of over 100 µM.
`CN1CCN(c2c(Cl)cc(Cl)c3[nH]c4ccccc4c(=O)c23)CC1` was tested, and the TGI [1] was over 36.2 µM, the TGI [2] was 19.5 µM and the TGI [3] was 27.9 µM. It also gave a TGI [4] of 21.5 µM, a TGI [5] of 27 µM and a TGI [6] of 9.96 µM. The TGI [7] was 21.3 µM, the TGI [8] was 20.3 µM and the TGI [9] was 28.9 µM. For the same compound, the TGI [10] was 16.6 µM.
`CC[N+]1(C)CCC(O)(/C=C/c2ccc(OC)cc2)C(C(=O)/C=C/c2ccc(OC)cc2)C1` (configuration not stated) gave a TGI [2] of 30.8 µM, a TGI [3] of over 56.2 µM and a TGI [4] of over 58.5 µM. It also gave a TGI [5] of 42.6 µM, a TGI [6] of 4.94 µM and a TGI [7] of 7.42 µM. For the same compound, the TGI [8] was 47.1 µM, the TGI [9] was over 60.8 µM and the TGI [10] was 31.2 µM.
For `CCOC(=O)C1(C(=O)OCC)[C@H](c2ccccc2)C2=NO[C@@H]3CCC[C@H]1[C@H]23`, the TGI [1] was over 100 µM, the TGI [2] was over 100 µM and the TGI [3] was over 100 µM. It also gave a TGI [4] of over 100 µM, a TGI [5] of over 100 µM and a TGI [6] of over 100 µM. The TGI [7] was over 100 µM, the TGI [8] was over 100 µM and the TGI [9] was over 100 µM. The TGI [10] was over 100 µM.
Work on `CN(C)CCNC(=O)c1ccc(NCCCN(C)CCCNc2ccc3c(=O)n(CCN(C)C)c(=O)n4c5ccccc5c(=O)c2c34)c2c(=O)c3ccccc3[nH]c12` yielded a TGI [2] of 0.67 µM, a TGI [3] of 0.885 µM and a TGI [4] of 0.262 µM. For the same compound, the TGI [5] was 0.27 µM, the TGI [6] was 1.1 µM and the TGI [8] was 1.16 µM. It also gave a TGI [9] of 3.32 µM.
`CCOC(=O)C(NC(=O)N(C1=NCC(C)S1)C1CCCCC1)(OC)C(F)(F)F` (configuration not stated) showed a TGI [1] of over 100 µM, a TGI [2] of over 100 µM and a TGI [3] of over 100 µM. It also gave a TGI [4] of 29.3 µM, a TGI [5] of over 100 µM and a TGI [6] of over 100 µM. For the same compound, the TGI [7] was over 100 µM, the TGI [9] was over 100 µM and the TGI [10] was over 100 µM.
Compound `COC(=O)[C@H]1[C@@H](C(C)C)O[C@@H](C(C)C)O[C@H]1C(F)(F)F` has a TGI [1] of over 100 µM, a TGI [2] of over 100 µM and a TGI [3] of over 100 µM. For the same compound, the TGI [4] was over 100 µM, the TGI [5] was over 100 µM and the TGI [6] was over 100 µM. It also gave a TGI [7] of over 100 µM, a TGI [8] of over 100 µM and a TGI [9] of over 100 µM. The TGI [10] was over 100 µM.
Compound `C[C@@H](O)C(=O)N1[C@@H]2CC3CC[C@]2(CS1(=O)=O)C3(C)C` has a TGI [1] of 72.9 µM, a TGI [2] of over 100 µM and a TGI [3] of over 100 µM. The TGI [4] was over 100 µM, the TGI [5] was over 100 µM and the TGI [6] was over 100 µM. It also gave a TGI [7] of over 100 µM, a TGI [8] of over 100 µM and a TGI [9] of over 100 µM. It also gave a TGI [10] of over 100 µM.
